The nature of data set [1]: in vitro. The note with it: human.
Data set [2] is described as follows: in vitro. The note with it: human. This is another data set of the same source.
Description: Intrinsic clearance in cryopreserved human HepaRG cells assessed per 10^6 cells by LC-MS/MS method
The species entered for another data set is Homo sapiens. The note with it: in vivo.
A short description of data set [3]: in vitro. The note with it: human, hepatocytes.
Description: (§1) Intrinsic clearance in human using well stirred liver model by LC-MS/MS method
Data set [4] can be described thus: physchem.
Description: Dissociation constant, pKa of the compound
A short description of data set [5]: in vitro. The note with it: blood.
The nature of data set [6]: in vitro. The note with it: human. This is another data set of the same source.
Data set [7] is described as follows: physchem. The note with it: octanol/water.
Description: Lipophilicity, log P of the compound
For another data set, the system named is Hepatocyte. The note with it: human, hepatocytes.
For data set [8] the following is noted: human, hepatocytes.
Description: as §1
The conditions of data set [9]: octanol/water.
Description: Lipophilicity, log P of the compound

Structures are written as SMILES.

Description for Homo sapiens: Hepatic clearance in human

Regarding `OCCN1CCN(CCCN2c3ccccc3Sc3ccc(C(F)(F)F)cc32)CC1` [FLUPHENAZINE], the fraction unbound (in general, free concentration divided by total concentration) in “in vitro [1]” (hepatocytes) amounted to 0.455; in “in vitro [5]” it was 0.012. The hepatocyte CLint – broadly, the capacity of the preparation to metabolise the compound, expressed as a volume cleared per time – in “in vitro [2]” (cryopreserved HepaRG cells) turned out to be 71.6 µL/min/1e6 cells; in “in vitro [6]” (cryopreserved hepatocytes), 121 µL/min/1e6 cells. In the data set listed under Homo sapiens, this compound had a CLH of 9.9 mL/min/kg. In addition, in “in vitro [3]”, the intrinsic clearance (CLint scaled) (as a rule, the capacity of the preparation to metabolise the compound, expressed as a volume cleared per time) came to 1580 mL/min/kg. Further, in the data set “physchem [4]”, the pKa (as a rule, the pH at which an ionisable group is half protonated) worked out at 4.2. Further, in “physchem [7]”, the logP (usually a log measure of how a compound divides between an organic and an aqueous phase) was 4.58.

For the compound `Cc1cc(=O)n(-c2ccccc2)n1C` [ANTIPYRINE], the fraction unbound in “in vitro [1]” (human hepatocytes) turned out to be 0.988; in the data set “in vitro [5]”, 0.97. Moreover, the CLH is 0.57 mL/min/kg in the data set listed under Homo sapiens and 0.083 uL/min/10^6cells in the data set with Hepatocyte. In the data set “in vitro [3]”, this compound came in with an intrinsic metabolic clearance (CLint scaled) of 0.604 mL/min/kg.

Regarding `CC(C(=O)O)c1cccc(Oc2ccccc2)c1` (configuration not stated) [FENOPROFEN], the results for the fraction unbound in the data set “in vitro [1]” (human hepatocytes) and in the data set “in vitro [5]” were 0.984 and 0.018, respectively. Further, the hepatocyte CLint in “in vitro [2]” (cryopreserved HepaRG cells) came out at 5.31 µL/min/1e6 cells; in “in vitro [6]” (cryopreserved hepatocytes) it was 8.5 µL/min/1e6 cells. In the data set filed under Homo sapiens, this compound had a CLH of 0.6 mL/min/kg. In addition, the log partition coefficient (logP) in “physchem [7]” was determined as 0.8.

In “in vitro [1]” (hepatocytes), `COCCc1ccc(OCC(O)CNC(C)C)cc1` (configuration not stated) [METOPROLOL] had a fraction unbound of 0.974. The hepatocyte CLint was 8.41 µL/min/1e6 cells in “in vitro [2]” (cryopreserved HepaRG cells) and 13 µL/min/1e6 cells in the data set “in vitro [6]” (cryopreserved hepatocytes). Further, the CLH in the data set filed under Homo sapiens came to 13.3 mL/min/kg. Besides, the CLint scaled in “in vitro [3]” is 46.5 mL/min/kg. The same compound had a logP in the data set “physchem [7]” of 1.93.

Take `C[C@]12C=CC(=O)C=C1CC[C@@H]1[C@@H]2[C@@H](O)C[C@@]2(C)[C@H]1CC[C@]2(O)C(=O)CO` [PREDNISOLONE]: the unbound share (fraction unbound) in “in vitro [1]” (human hepatocytes) was determined as 0.98; in the data set “in vitro [5]”, 0.1. In addition, the hepatocyte CLint in the data set “in vitro [2]” (cryopreserved HepaRG cells) turned out to be 8.49 µL/min/1e6 cells; in “in vitro [6]” (cryopreserved hepatocytes), 28.3 µL/min/1e6 cells. In the data set filed under Homo sapiens, the CLH was 2.4 mL/min/kg. The compound also returned a CLint scaled in “in vitro [3]” of 27.1 mL/min/kg. This compound gave a logP in the data set “physchem [7]” of 1.5.

Consider `CN(C)CCCN1c2ccccc2Sc2ccc(Cl)cc21` [CHLORPROMAZINE], for which the fraction unbound in “in vitro [1]” (hepatocytes) amounted to 0.302; in “in vitro [5]” it was 0.053. The CL in data set [8] came to 278 mL/min/kg. Moreover, the hepatocyte CLint in the data set “in vitro [2]” (heparg) worked out at 252 µL/min/1e6 cells; in “in vitro [6]” (hepatocytes) it was 82.5 µL/min/1e6 cells. In the data set listed under Homo sapiens, this compound showed a CLH of 8.6 mL/min/kg.

For `C=CCc1ccccc1OCC(O)CNC(C)C` (configuration not stated) [ALPRENOLOL], the fraction unbound in “in vitro [1]” (human hepatocytes) was determined as 0.933; in “in vitro [5]”, 0.27. For the same compound, the intrinsic clearance (hepatocyte CLint) in the data set “in vitro [2]” (cryopreserved HepaRG cells) is 25.1 µL/min/1e6 cells; in the data set “in vitro [6]” (cryopreserved hepatocytes), 49.3 µL/min/1e6 cells. Besides, in the data set listed under Homo sapiens, the CLH turned out to be 12.5 mL/min/kg. Also, the CLint scaled in the data set “in vitro [3]” stood at 117 mL/min/kg. Besides, the logP in the data set “physchem [7]” was 3.12.

With `CN(C)CCCN1c2ccccc2Sc2ccccc21` [PROMAZINE], the fraction unbound in “in vitro [1]” (human hepatocytes) turned out to be 0.545; in “in vitro [5]”, 0.029. Moreover, the hepatocyte CLint in “in vitro [2]” (cryopreserved HepaRG cells) stood at 51.6 µL/min/1e6 cells; in the data set “in vitro [6]” (cryopreserved hepatocytes), 30.9 µL/min/1e6 cells. In the data set listed under Homo sapiens, this compound came in with a CLH of 14.3 mL/min/kg. The compound further displayed a CLint scaled in the data set “in vitro [3]” of 1600 mL/min/kg. The compound further had a logP in “physchem [7]” of 4.59.

As to `CCc1cccc2cc(C(O)CNC(C)(C)C)oc12` (configuration not stated) [BUFURALOL], the fraction unbound was determined as 0.97 in “in vitro [1]” (hepatocytes) and 0.24 in “in vitro [5]”. For the same compound, the intrinsic metabolic clearance (hepatocyte CLint) in “in vitro [2]” (heparg) was determined as 88 µL/min/1e6 cells; in the data set “in vitro [6]” (hepatocytes), 51.3 µL/min/1e6 cells. The compound also returned a CLH in the data set listed under Homo sapiens of 8.8 mL/min/kg. Also, the CLint scaled in “in vitro [3]” came out at 63.8 mL/min/kg. Further, the pKa in “physchem [4]” was 8.9. Further, the lipophilicity (logP) in the data set “physchem [7]” was found to be 2.7.

For `CC(CCc1ccccc1)NCC(O)c1ccc(O)c(C(N)=O)c1` (configuration not stated) [LABETALOL], the values for the fraction unbound in the data set “in vitro [1]” (human hepatocytes) and in “in vitro [5]” were 0.961 and 0.32, respectively. The same compound returned a logP in data set [9] of 1.2. Further, the hepatocyte CLint in the data set “in vitro [2]” (cryopreserved HepaRG cells) was determined as 7.47 µL/min/1e6 cells; in “in vitro [6]” (cryopreserved hepatocytes) it was 21.6 µL/min/1e6 cells. In addition, the CLH in the data set listed under Homo sapiens came to 18.1 mL/min/kg. Also, the CLint scaled in “in vitro [3]” was 450 mL/min/kg.

These data come from ChEMBL document CHEMBL3526137, “Comparison of cryopreserved HepaRG cells with cryopreserved human hepatocytes for prediction of clearance for 26 drugs” (Drug Metab Dispos, 2012).
